The values that follow come from patent US20180148418A1, “AMIDO-SUBSTITUTED CYCLOHEXANE DERIVATIVES” (Bayer Pharma Aktiengesellschaft, priority 2015, published 2018).

SMILES strings stand for the structures. A value given as a limit tells only on which side of the number the result lay.

The subject of experiment [1] is wildtype Wnt signaling cascade. In words: HEK293 TOP assay (Super TopFlash luciferase reporter, Wnt-3a stimulated). It is filed as cell-based. Particulars: HEK293 TOP reporter cells, Wnt3a at EC50, 16 hours. The text has this:
7.1 Measurement of the Inhibitory Activity of Selected Compounds on the Wildtype Wnt Signaling Cascade: HEK293 TOP/FOP Assay
In order to discover and characterize small molecules which inhibit the wildtype Wnt pathway, a cellular reporter assay was employed. The corresponding assay cell was generated by transfection of the mammalian cell line HEK293 (ATCC, #CRL-1573) with the Super TopFlash vector (Morin, Science 275, 1997, 1787-1790; Molenaar et al., Cell 86 (3), 1996, 391-399). The HEK293 cell line is cultivated at 37° C. and 5% CO2 in DMEM (Life Technologies, #41965-039), supplemented with 2 mM glutamine, 20 mM HEPES, 1.4 mM pyruvate, 0.15% Na-bicarbonate and 10% foetal bovine serum (GIBCO, #10270). Stable transfectants were generated by selection with 300 μg/ml Hygromycin.
(§1) In preparation of the assay, the two cell lines were plated 24 h before beginning the test at 10000 cells per well in a 384 micro titre plate (MTP) in 30 μl growth medium. […] The recombinant human Wnt-3a was thereby applied between 2500 and 5 ng/ml in two-fold dilution steps.
(§2) Selective inhibitory activity for small molecules on the wildtype Wnt pathway was determined after parallel incubation of both (TOP and FOP) HEK293 reporter cell lines with a compound dilution series from 50 μM to 15 nM in steps of 3.16-fold dilutions in CAFTY buffer (130 mM sodium chloride, 5 mM potassium chloride, 20 mM HEPES, 1 mM magnesium chloride, 5 mM sodium bicarbonate, pH 7.4) containing 2 mM Ca^2+ and 0.01% BSA.
(§3) The compounds were thereby serially prediluted in 100% DMSO and thereafter 50 fold into the CAFTY compound dilution buffer (described above).
Background: Reporter assays use an easily measured gene product as a stand-in for the process of interest.

In experiment [2] the test system is HEK293 cells cotransfected with the FOP control vector. In words: HEK293 FOP assay (control reporter with non-functional TCF elements). Particulars: 16 hours. It is filed as cell-based. The method, then:
In a parallel approach, HEK293 cells were cotransfected with the FOP control vector and pcDNA3. The FOP vector is identical to the TOP construct, but it contains instead of functional TCF elements a randomized, non-functional sequence. For this transfection a stable transfected cell line was generated as well, based on selection with Geneticin (1 mg/ml).
as §1, §2, §3

The target in experiment [3] is T1, TNKS2 (Homo sapiens, UniProt Q9H2K2).
T1 construct: purchased BPS Bioscience, San Diego, USA 80572 (TNKS2 Histone Ribosylation Assay Kit)
T1 sequence (Q9H2K2 1-1166): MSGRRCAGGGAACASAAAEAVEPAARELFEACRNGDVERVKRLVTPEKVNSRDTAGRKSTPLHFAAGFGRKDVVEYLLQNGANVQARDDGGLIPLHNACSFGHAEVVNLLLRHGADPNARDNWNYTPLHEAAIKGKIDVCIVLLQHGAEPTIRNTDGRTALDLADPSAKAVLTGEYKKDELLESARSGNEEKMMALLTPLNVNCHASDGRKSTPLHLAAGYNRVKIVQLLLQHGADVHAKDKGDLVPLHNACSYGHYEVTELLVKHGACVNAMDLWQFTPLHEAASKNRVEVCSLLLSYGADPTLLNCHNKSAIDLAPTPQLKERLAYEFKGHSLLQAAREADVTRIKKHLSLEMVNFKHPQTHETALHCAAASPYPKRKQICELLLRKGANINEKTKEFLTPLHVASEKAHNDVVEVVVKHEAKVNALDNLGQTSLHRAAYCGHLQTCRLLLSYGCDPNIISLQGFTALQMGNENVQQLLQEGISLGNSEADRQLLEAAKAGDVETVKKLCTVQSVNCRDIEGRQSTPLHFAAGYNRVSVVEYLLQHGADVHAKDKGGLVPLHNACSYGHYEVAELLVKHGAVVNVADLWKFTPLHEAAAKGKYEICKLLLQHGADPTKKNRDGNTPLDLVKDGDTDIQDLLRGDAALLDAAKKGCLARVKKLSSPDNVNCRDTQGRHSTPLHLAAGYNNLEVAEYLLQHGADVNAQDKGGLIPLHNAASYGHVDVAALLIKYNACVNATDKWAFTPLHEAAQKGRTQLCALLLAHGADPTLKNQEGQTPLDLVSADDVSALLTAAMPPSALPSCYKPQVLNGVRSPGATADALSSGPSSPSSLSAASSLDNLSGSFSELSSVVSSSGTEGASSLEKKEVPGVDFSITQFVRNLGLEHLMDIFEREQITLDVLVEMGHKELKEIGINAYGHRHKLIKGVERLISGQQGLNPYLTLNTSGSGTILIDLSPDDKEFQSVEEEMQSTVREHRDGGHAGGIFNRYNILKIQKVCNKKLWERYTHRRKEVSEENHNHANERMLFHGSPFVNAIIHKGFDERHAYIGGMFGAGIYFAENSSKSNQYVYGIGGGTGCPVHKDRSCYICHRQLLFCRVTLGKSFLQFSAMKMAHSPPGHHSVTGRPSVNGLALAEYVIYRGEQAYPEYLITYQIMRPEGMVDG
In words: TNKS2 Assay B (auto-parsylation, [3H]-NAD+ SPA). It is filed as biochemical. Conditions: 6 nM TNKS2, auto-parsylation, over night at room temperature. Here is the method: The potency of selected compounds according to the invention was assessed applying a modified in vitro inhibition assay. Here, the TNKS2 catalyzed NAD^+-dependent ribosylation of the enzyme itself (auto-parsylation) was detected using [^3H]-NAD^+ as substrate and applying the scintillation proximity assay (SPA) method to detect tritium-labeled, parsylated TNKS2. The intensity of the readout signal is proportional to the incorporated [^3H]-NAD^+. Inhibition of TNKS2 leads to a decreased incorporation of [^3H]-NAD^+ and consequently to a lower readout signal intensity. The concentration of a test compound which inhibits the enzyme activity by 50% (corresponds to half of the normed readout signal intensity) is reported as IC50.
Protocol Auto-Parsylation Assay
The assay was conducted in a 96 well MTP format with the identical TNKS2 enzyme sample and NAD^+ sample as in the histone ribosylation assay with the following modifications: TNKS2 enzyme sample was diluted with a modified assay buffer (50 mM MES pH 7.0, 1 mM DTT, 0.01% Triton X-100) to a final concentration of 6 nM TNKS2 and 10×NAD^+ solution was diluted with the modified assay buffer (s. above) to a final 0.445×NAD^+ solution doped with 100 Bq/μl [^3H]-NAD^+[Catalog #NET443H050UC, Perkin Elmer, Waltham, Mass., USA]. Substrate solution (10 μl) was incubated with different test compound concentrations (2.5 μl in 10% DMSO in modified assay buffer) or control (2.5 μl 10% DMSO in modified assay buffer only) and enzyme (10 μl) over night at room temperature. Incorporated tritium was measured after addition of 50 ul SPA beads (1 mg/ml) [Catalog #RPNQ0095 20 mg/ml, Perkin Elmer, Waltham, Mass., USA; diluted 1:10 with Dulbecco's phosphate buffered saline, PBS Catalog #D8537, Sigma-Aldrich, Steinheim, Germany] and detection of the photon emission with a beta count plate reader [Wallac MicroBeta®, Perkin Elmer, Waltham, Mass., USA].

Broadly, the IC50 is the point on the concentration scale where inhibition reaches its midpoint. Lower therefore signals higher potency.

On to `CCN(c1ccccc1Cl)C(=O)[C@H]1CC[C@H](NC(=O)c2[nH]cnc2C(=O)NC)CC1` [Example 158, N^5-{trans-4-[(2-chlorophenyl)(ethyl)carbamoyl]cyclohexyl}-N^4-methyl-1H-imidazole-4,5-dicarboxamide], for which the IC50 in experiment [1] (Homo sapiens, HEK293, 16 h) is 34 nM; in experiment [2] (Homo sapiens) it was at least 50 µM; in experiment [3], 150 nM.

Consider `CC(C)NC(=O)c1nc[nH]c1C(=O)N[C@H]1CC[C@@]2(CCCN(c3ccc(F)cc3Cl)C2=O)CC1` [Example 329, N^5-[(trans)-2-(2-chloro-4-fluorophenyl)-1-oxo-2-azaspiro[5.5]undec-9-yl]-N^4-(propan-2-yl)-1H-imidazole-4,5-dicarboxamide], for which the concentration for half-maximal inhibition (IC50) in experiment [1] (Homo sapiens, HEK293, 16 h) amounted to 260 nM; in experiment [2] (Homo sapiens), 40 µM; in experiment [3], 160 nM.

Consider `NC(=O)c1nc[nH]c1C(=O)N[C@H]1CC[C@]2(CCN(c3ccc(F)cc3Cl)C2=O)CC1` [Example 342, N^5-[(cis)-2-(2-chloro-4-fluorophenyl)-1-oxo-2-azaspiro[4.5]dec-8-yl]-1H-imidazole-4,5-dicarboxamide], for which the IC50 in experiment [1] (Homo sapiens, HEK293, 16 h) is 840 nM; in experiment [2] (Homo sapiens), 35 µM; in experiment [3], 1300 nM.

As for `CNC(=O)c1[nH]cnc1C(=O)NC1CCC(C(=O)Nc2ccc(F)cc2Cl)CC1C` (centres unmarked) [Example 38, N^4-{4-[(2-chloro-4-fluorophenyl)carbamoyl]-2-methylcyclohexyl}-N^5-methyl-1H-imidazole-4,5-dicarboxamide], the IC50 in experiment [1] (Homo sapiens, HEK293, 16 h) was 440 nM; in experiment [2] (Homo sapiens) it was at least 50 µM.

Regarding `CC1CC2(CCC(NC(=O)c3cnn4cccnc34)CC2)C(=O)N1c1ccc(F)cc1Cl` (single isomer, unassigned; enantiomer 2) [Example 357, N-[(trans)-2-(2-chloro-4-fluorophenyl)-3-methyl-1-oxo-2-azaspiro[4.5]dec-8-yl]pyrazolo[1,5-a]pyrimidine-3-carboxamide (enantiomer 2)], the IC50 in experiment [1] was 5.3 nM; in experiment [2], at least 50 µM.

Turning to `CNC(=O)c1[nH]cnc1C(=O)NC1CCC(C(=O)Nc2ccc(F)cc2Cl)CC1C` (centres unmarked) [Example 40, N^4-{4-[(2-chloro-4-fluorophenyl)carbamoyl]-2-methylcyclohexyl}-N^5-methyl-1H-imidazole-4,5-dicarboxamide], the concentration for half-maximal inhibition (IC50) in experiment [1] was 460 nM; in experiment [2] it was at least 50 µM.

With `CC1CC2(CCC(NC(=O)c3cnn4cccnc34)CC2)C(=O)N1c1ccc(F)cc1Cl` (single isomer, unassigned; enantiomer 1) [Example 356, N-[(trans)-2-(2-chloro-4-fluorophenyl)-3-methyl-1-oxo-2-azaspiro[4.5]dec-8-yl]pyrazolo[1,5-a]pyrimidine-3-carboxamide (enantiomer 1)], the results for the half-inhibitory concentration (IC50) in experiment [1] and in experiment [2] were 26 nM and at least 50 µM, respectively.

Regarding `O=C(N[C@H]1CC[C@H](C(=O)Nc2c(F)cc(F)cc2Cl)CC1)c1cnn2cccnc12` [Example 131, N-{trans-4-[(2-chloro-4,6-difluorophenyl)carbamoyl]cyclohexyl}pyrazolo[1,5-a]pyrimidine-3-carboxamide], the 50% inhibitory concentration (IC50) was 140 nM in experiment [1] (Homo sapiens, HEK293, 16 h) and at least 50 µM in experiment [2] (Homo sapiens).

In the case of `CNC(=O)c1[nH]cnc1C(=O)N[C@H]1CC[C@H](C(=O)Nc2ccc(F)cc2Cl)CC1(F)F` (stereo in doubt) [Example 34, N^4-{(trans)-4-[(2-chloro-4-fluorophenyl)carbamoyl]-2,2-difluorocyclohexyl}-N^5-methyl-1H-imidazole-4,5-dicarboxamide], the 50% inhibitory concentration (IC50) in experiment [1] (Homo sapiens, HEK293, 16 h) was 210 nM; in experiment [2] (Homo sapiens), at least 50 µM.

Take `CN1CCN(c2ccn3ncc(C(=O)N[C@H]4CC[C@@]5(CCN(c6ccc(F)cc6Cl)C5=O)CC4)c3n2)CC1` [Example 229, N-[(trans)-2-(2-chloro-4-fluorophenyl)-1-oxo-2-azaspiro[4.5]dec-8-yl]-5-(4-methylpiperazin-1-yl)pyrazolo[1,5-a]pyrimidine-3-carboxamide]: the IC50 in experiment [1] (Homo sapiens, HEK293, 16 h) is 57 nM; in experiment [2] (Homo sapiens), at least 50 µM.

For the compound `CNC(=O)c1nc[nH]c1C(=O)N[C@H]1CC[C@H](C(=O)Nc2snc(C)c2Cl)CC1` [Example 175, N^5-{trans-4-[(4-chloro-3-methyl-1,2-thiazol-5-yl)carbamoyl]cyclohexyl}-N^4-methyl-1H-imidazole-4,5-dicarboxamide], the IC50 in experiment [1] (Homo sapiens, HEK293, 16 h) came to 1600 nM; in experiment [2] (Homo sapiens) it was 1.3 µM.

Turning to `CNC(=O)c1[nH]cnc1C(=O)N[C@H]1CC[C@]2(CC1)CC(O)N(c1ccc(F)cc1Cl)C2=O` (mixture of isomers) [Example 307, N^4-[(trans)-2-(2-chloro-4-fluorophenyl)-3-hydroxy-1-oxo-2-azaspiro[4.5]dec-8-yl]-N^5-methyl-1H-imidazole-4,5-dicarboxamide (mixture of isomers at C3)], the IC50 is 30 nM in experiment [1] (Homo sapiens, HEK293, 16 h) and at least 50 µM in experiment [2] (Homo sapiens).

Consider `Cc1cc(O)n2ncc(C(=O)N[C@H]3CC[C@@]4(CCN(c5ccc(F)cc5Cl)C4=O)CC3)c2n1` [Example 364, N-[(trans)-2-(2-chloro-4-fluorophenyl)-1-oxo-2-azaspiro[4.5]dec-8-yl]-7-hydroxy-5-methylpyrazolo[1,5-a]pyrimidine-3-carboxamide], for which the IC50 in experiment [1] (Homo sapiens, HEK293, 16 h) is 170 nM; in experiment [2] (Homo sapiens), at least 50 µM.
